Patent US20050287169A1, “Methods of use of genes of pyridoxal 5'-phosphate biosynthesis in Bacillus subtilis: avirulent strains for vaccines, and methods for identification of antibacterial agents” (priority 2003, published 2005)

Columns and labels:
[1] = system: B. subtilis strain BB2253 (ΔpdxS); experiment: Growth of B. subtilis pdxS (yaaD) null mutant BB2253 with supplements; format: cell-based, Bacillus subtilis
Method: (§1) Bacterial strains, plasmids and culture media. B. subtilis strains were grown at 37° C. in TSS minimal medium with 0.5% glucose as the carbon source and 0.2% glutamate or NH4Cl as nitrogen source, in LB broth [Miller, 1972], or in DS nutrient broth medium [Fouet, 1990]. The same media with addition of agar were used for growth of bacteria on plates. LB broth or LB agar was used for growth of Escherichia coli strains. The following antibiotic concentrations were used as appropriate: chloramphenicol, 2.5 μg/ml; neomycin, 2.5-5 μg/ml; phleomycin, 0.25 μg/ml; spectinomycin, 50 μg/ml; or a combination of erythromycin, 0.5 μg/ml, and lincomycin, 12.5 μg/ml, for B. subtilis strains; ampicillin, 50-100 μg/ml; kanamycin, 25 μg/ml; spectinomycin, 50 μg/ml; or chloramphenicol, 10 μg/ml, for E. coli strains.
Construction of yaaD and yaaE null mutants. A deletion mutation within gene yaaD was created by cutting out the 606-bp fragment starting at the AatII site of pBB1181 (FIG. 2) and religating the remaining fragment after filling in its ends (the deletion endpoint, as determined by sequencing, was determined to be beyond the HindIII site, designed for this construct). In the resulting plasmid, pBB1185 (FIG. 2), the deletion was found not to alter the reading frame ofyaaD. pBB1218, a truncated version of pBB1185 (FIG. 2), was introduced by a single-crossover, homologous recombination event into the chromosome of strain SMY, selecting transformants for neomycin resistance. […] After growth of cells of the […] Pdx^− strain in the absence of neomycin, a Neos Pdx^− derivative was isolated. In this strain it was observed that the integrated pBB1218 had been excised from the chromosome and lost. Replacement of the wild-type yaaD gene by the ΔyaaD allele in strain BB2253 and excision of pBB1218 was confirmed by sizing PCR fragments generated from the yaaD locus and by probing for the loss of vector sequences.
Poor ability to utilize PN has been observed for uncharacterized B. subtilis mutants that appeared to require B6 vitamers for growth [Pflug, 1978]. B. subtilis cells apparently lack the pdxH-like gene and the corresponding pyridoxine 5′-phosphate oxidase activity [Pflug, 1983] required for conversion of pyridoxine to PLP.

[2] = system: B. subtilis pdxT mutant (strains BB2256, BB2290); experiment: Growth of B. subtilis pdxT (yaaE) null mutant with supplements; format: cell-based, Bacillus subtilis
Method: as §1
A deletion-insertion mutation within the yaaE gene was constructed by replacing a 135-bp SphI-EcoRI fragment of pBB1213 (FIG. 2) with a 1.4-kb SphI-EcoRI ble cassette determining resistance to phleomycin, excised from pJPM136 [Belitsky, 1998]. The orientation of the ble gene in the resulting plasmid pBB1217 (ΔyaaE::ble; FIG. 2) coincided with that of the yaaE gene. Plasmid pBB1217 was introduced into B. subtilis SMY, and Phlr NeoS transformants arising from double crossover homologous recombination events were selected. Replacement of the chromosomal yaaE gene by the ΔyaaE::ble allele in strain BB2256 was confirmed by comparing sizes of PCR fragments from each of the wild-type and the mutant yaaE chromosomal loci.

[3] = system: B. subtilis strain BB2267 (ΔpdxS ΔpdxZ::spc); experiment: Viability and growth of double pdxS pdxZ null mutant BB2267 with PLP precursors; format: cell-based, Bacillus subtilis; details: for Viability of double mutant pdxS pdxZ (BB2267): DS nutrient broth or glucose-ammonium TSS medium
Source text: Double pdxS pdxZ and pdxT pdxZ null mutants, defective both in de novo and salvage pathways of PLP synthesis, were obtained by introducing the pdxZ mutation into the chromosome of the pdxS or pdxT mutant cells by transformation.
Viability of cells of strain BB2295 carrying both pdxS and pdxZ mutations was also obtained in the absence of exogenous pyridoxal in the presence of xylose, by conditionally restoring the de novo pathway of PLP synthesis with a xylose-inducible form of the pdxS gene at an ectopic location, i.e., located elsewhere on the chromosome. These and similarly constructed conditional lethal strains can be used for vaccine development, to overcome possible lethality to the bacteria during culture of cells carrying double pdxS and pdxZ or double pdxT and pdxZ mutations.

[4] = system: L. monocytogenes strain BL1 (ΔpdxST::spc); experiment: Growth of Listeria monocytogenes ΔpdxST::spc mutant BL1 with B6 vitamers; format: cell-based
Method: The resulting plasmid, pBB1212, was introduced into E. coli strain DW1030 containing conjugative plasmid pRK231.7, a broad host range plasmid of the IncP incompatibility group. pBB1212 was transferred from strain DW1030 (pBB1212) into L. monocytogenes cells by conjugation [Trieu-Cuot, 1987] at the temperature (30°) permissive for replication of pBB1212. The ΔpdxST::spc mutants, formed due to allelic exchange resulting from pBB1212 plasmid integration into the chromosome at the non-permissive temperature (41°) and excision at the permissive temperature, were obtained by screening colonies that lost the plasmid marker (chloramphenicol-resistance) and had retained resistance to spectinomycin. Replacement of the chromosomal pdxST locus by the ΔpdxST::spc allele in strain BL1 was confirmed by comparing the sizes of PCR fragments obtained by use of the wild-type and mutant pdxST chromosomal loci as templates.
These traits of the L. monocytogenes mutant are similar to those observed herein with the corresponding B. subtilis mutant.

pdxS-lacZ fusion = experiment: Expression of pdxS-lacZ fusion (β-galactosidase activity); format: cell-based, Bacillus subtilis; details: for β-Galactosidase activity: NH4Cl 10 mM, PL 100 μM, glucose-minimal medium
Source text: Construction of transcriptional pdxS-lacZ (yaaD-lacZ) and pdxT-lacZ (yaaE-lacZ) fusions. The 1.35-kb BamHI-EcoRI fragment containing the entire intragenic region between dacA and pdxS, the entire pdxS gene, and the 5′-end of the pdxT gene (FIG. 2), was cut out from the PCR product generated using primers oBB120 and oBB121 and was cloned between the corresponding sites of pHK23 to construct pBB1254 (pdxST-lacZ; FIG. 2). Plasmid pHK23 containing an erythromycin resistance gene was derived from pLG103 [Belitsky et al., 2002, the entire contents of which are hereby incorporated by reference herein]. To construct plasmid pBB1259 with apdxS-lacZ fusion (FIG. 2), a 0.50-kb HindIII-EcoRI fragment containing the 3′-end of the pdxS gene and the 5′-end of thepdxT gene, was cut out of pBB1254, and the plasmid was blunt-ended and religated. To construct plasmid pBB1262 with a pdxT-lacZ fusion (FIG. 2), a 0.43-kb BamHI-BseRI fragment, containing the pdxS promoter and the 5′-part of the pdxS gene, was cut out of pBB1254, and the plasmid was blunt-ended and religated. Strains BB2277, 2279, and 2285 carrying thepdx-lacZ transcriptional fusions integrated at the amyE locus were isolated after transforming strain SMY with pBB1254, 1259, and 1262, respectively, selecting for resistance to erythromycin and screening for loss both of α-amylase production (Amy) and vector sequences as indications of a double crossover, homologous recombination event. The Amy phenotype was assayed using colonies grown overnight on Tryptose Blood Agar Base (Difco)-0.2% starch plates [Fouet, 1990].
Activity of β-galactosidase was determined as described previously [Belitsky, 1995]. Specific activities are expressed in Miller units (1000×OD420/min·ml·OD600) [Miller, 1972].
ApdxS-lacZ transcriptional fusion (plasmid pBB1259; FIG. 2) was constructed as described in Materials and Methods herein, and was integrated at the ectopic amyE locus of the B. subtilis chromosome (strain BB2279).
No effect of addition of excess pyridoxal (up to 1 mM) was observed on expression or on growth rate. Further, a moderate activation of expression (about 3-4-fold) was observed as a result of B6 limitation, for example, by growth of apdxT mutant in LB broth. This effect was not observed or was much less pronounced for the pdxT mutant using LB broth supplemented with excess PL or NH4Cl (FIG. 6), or in a wild type strain. Further, a 2-3-fold decrease in β-galactosidase activity was observed inpdxT mutant cells grown in TSS-glucose mediume with limiting concentrations of ammonium salts, and this decrease in pdxS-lacZ expression was prevented by the presence of PL (Table 5).

[5] = system: B. subtilis strain BB2279 (wild-type); experiment: Growth rate of wild-type B. subtilis strain BB2279 carrying pdxS-lacZ; format: cell-based, Bacillus subtilis
Method: as §1
No effect of addition of excess pyridoxal (up to 1 mM) was observed on expression or on growth rate. Further, a moderate activation of expression (about 3-4-fold) was observed as a result of B6 limitation, for example, by growth of apdxT mutant in LB broth. This effect was not observed or was much less pronounced for the pdxT mutant using LB broth supplemented with excess PL or NH4Cl (FIG. 6), or in a wild type strain. […]

[6] = system: Bacillus circulans pdxT mutant; details: addition of pyridoxine; cited from earlier work
[7] = system: G. stearothermophilus PdxT-His6 protein
[8] = target: T1, wild-type B. subtilis PdxS protein (Bacillus subtilis, UniProt P37527 2-294); experiment: co-purification on a Ni2+-affinity column from E. coli co-expressing both proteins (0.5 M NaCl, 0.4 M imidazole), SDS-PAGE
T1 construct: Co-expressed with PdxT-His6 in E. coli; also called YaaD; unmodified PdxS
T1 sequence (looked up): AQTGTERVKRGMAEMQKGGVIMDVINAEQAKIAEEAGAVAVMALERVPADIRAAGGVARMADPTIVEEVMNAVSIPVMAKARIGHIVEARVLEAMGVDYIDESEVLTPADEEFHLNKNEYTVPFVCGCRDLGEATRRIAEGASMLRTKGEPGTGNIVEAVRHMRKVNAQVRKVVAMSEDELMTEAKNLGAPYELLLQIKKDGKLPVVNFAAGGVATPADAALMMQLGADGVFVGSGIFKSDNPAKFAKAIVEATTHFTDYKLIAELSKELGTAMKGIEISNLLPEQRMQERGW
Method: pBAD derivatives were introduced into E. coli LMG194 (ara⁻) [Guzman, 1995] cells by transformation. The PdxS and/or PdxT proteins were induced in L-broth cultures (A₆₀₀=0.25−0.4) by addition of 0.2% L-arabinose and incubation for four hours. Cells were pelleted, were washed in 50 mM tris-Cl (pH 8.0)-5% glycerol and were disrupted by sonication in modified Novagen binding buffer (20 mM tris-Cl (pH 7.9)-500 mM NaCl-5 mM imidazole-5% glycerol) plus 1 mM phenylmethylsulfonyl fluoride and 0.1% Nonidet P-40. The sonicate was clarified by low speed centrifugation, and the supernatant was purified using a 2 ml Ni²⁺-column (Novagen) as described by the manufacturer. Buffers containing increasing concentrations of imidazole, from 30 mM to 1 M, were initially used for elution, and 485 mM and 385 mM imidazole were found suitable for elution of PdxS and PdxT proteins, respectively.
E. coli strains overproducing each of the wild-type version of the B. subtilis PdxS protein and the His₆-tagged version of PdxT were constructed, and were used for purification of the PdxT-His₆ protein by Ni²⁺-affinity chromatography.

[9] = isoleucine 500 μg/ml, with or without pyridoxine
[10] = strain BB2279, up to 1 mM pyridoxal

Cc1ncc(COP(=O)(O)O)c(C=O)c1O [PLP, Pyridoxal 5′-phosphate]
Growth of strain BB2253 in the presence of PLP [1]: Poor growth

Cc1ncc(CO)c(CN)c1O [Pyridoxamine]
Effectiveness for growth of the mutant compared with pyridoxal ([1]; strain BB2253): several-fold less effective

CC[C@H](C)[C@H](N)C(=O)O [isoleucine]
Effect on growth of the pdxS mutant [1, 9]: No effect
Effect on growth of the pdxT mutant [2, 9]: No effect

Cc1ncc(CO)c(C=O)c1O [pyridoxal]
Growth of B. subtilis ΔpdxS ([1]; FIG. 3A, 0.01 μM pyridoxal): no growth observed
Minimal concentration of pyridoxal supporting growth of B. subtilis ΔpdxS ([1]; FIG. 3A, growth rate a function of PL concentration up to 10 μM): 0.03 µM
Growth defects of strain BB2253 in rich media on addition of pyridoxal ([1]; LB-broth, brain heart infusion medium or DS medium): relieved
Restoration of growth of strain BB2253 ([1]; minimal media, 1 μM pyridoxal): fully restored
Growth rate ([2]; BB2290 pdxT, NH4Cl 10 mM, PL 100 μM, glucose-minimal medium): 60 min
Growth rate of strain BB2256 in the presence of PL ([2]; minimal and rich media): restored to that of the wild type cell
Growth and viability of double mutant pdxS pdxZ ([3]; 1 mM pyridoxal): Growth and viability
Pyridoxal concentration needed by the double mutant relative to that required for full growth of the pdxS mutant ([3]; 1 mM versus 1 μM): 1000 fold
Viability of double mutant pdxS pdxZ (BB2267) ([3]; 1 μM pyridoxal): non-viable
Restoration of growth of strain BL1 ([4]; 1 μM pyridoxal): fully restored
β-Galactosidase activity (pdxS-lacZ fusion; BB2279 wild-type): 190.4 Miller units
β-Galactosidase activity (pdxS-lacZ fusion; BB2290 pdxT): 142.4 Miller units
Effect of PL on the 2-3-fold decrease in pdxS-lacZ expression in pdxT mutant cells (pdxS-lacZ fusion; TSS-glucose medium, limiting ammonium salts): prevented
Effect of excess pyridoxal on pdxS-lacZ expression (pdxS-lacZ fusion; [10]): No effect
Growth rate ([5]; BB2279 wild-type, NH4Cl 10 mM, PL 100 μM, glucose-minimal medium): 60 min
Effect of excess pyridoxal on growth rate [5, 10]: No effect

Cc1ncc(CO)c(CO)c1O [pyridoxine]
Restoration of growth of strain BB2253 ([1]; 200 μM pyridoxine): only partially restored
Viability of double mutant pdxS pdxZ (BB2267) ([3]; 200 μM pyridoxine): non-viable
Restoration of growth of strain BL1 ([4]; 100 μM pyridoxine): not at all
Remediation of growth defect of B. circulans pdxT mutant [6]: not remediated

G. stearothermophilus PdxS containing a His6-tag at its C-terminus
glutaminase activity [7]: It was found that the G. stearothermophilus PdxST complex has glutaminase activity

B1: His6-tagged version of B. subtilis PdxT (enzyme, Bacillus subtilis)
chain: MLTIGVLGLQGAVREHIHAIEACGAAGLVVKRPEQLNEVDGLILPGGESTTMRRLIDTYQFMEPLREFAAQGKPMFGTCAGLIILAKEIAGSDNPHLGLLNVVVERNSFGRQVDSFEADLTIKGLDEPFTGVFIRAPHILEAGENVEVLSEHNGRIVAAKQGQFLGCSFHPELTEDHRVTQLFVEMVEEYKQKALVHHHHHH
notes: Overproduced in E. coli from pBB1252 (with PdxS) or pBB1256 (alone) and purified on a Ni2+ column; also called PdxT-His6; PdxT-H6
binding result [8]: binds
